Assay in all cases: Kinase activity inhibition assay (HTRF TK Kit), selectivity
Holding throughout (type): biochemical
In general terms: Time-resolved FRET reads energy transfer from a long-lived donor to a nearby acceptor.

One assay addresses T1, EGFR (Homo sapiens, UniProt P00533).
T1 construct: purchased Carna 08-115
In short, it runs like this:
(§1)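 Cmpd + substrate/ATP + kinase, assembled on ice, shaken 30 s, RT reaction; detection mix (SA-XL665 + TK Ab-cryptate) 1 h RT; 665/620 ratio. Controls: no-kinase blank, kinase + 1% DMSO. IC50 via 4-parameter logistic fit of % inhibition vs log[cmpd].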

A further assay addresses T2, ITK (Homo sapiens, UniProt Q08881).
T2 construct: purchased Carna 08-181
T2 sequence (Q08881 1-620): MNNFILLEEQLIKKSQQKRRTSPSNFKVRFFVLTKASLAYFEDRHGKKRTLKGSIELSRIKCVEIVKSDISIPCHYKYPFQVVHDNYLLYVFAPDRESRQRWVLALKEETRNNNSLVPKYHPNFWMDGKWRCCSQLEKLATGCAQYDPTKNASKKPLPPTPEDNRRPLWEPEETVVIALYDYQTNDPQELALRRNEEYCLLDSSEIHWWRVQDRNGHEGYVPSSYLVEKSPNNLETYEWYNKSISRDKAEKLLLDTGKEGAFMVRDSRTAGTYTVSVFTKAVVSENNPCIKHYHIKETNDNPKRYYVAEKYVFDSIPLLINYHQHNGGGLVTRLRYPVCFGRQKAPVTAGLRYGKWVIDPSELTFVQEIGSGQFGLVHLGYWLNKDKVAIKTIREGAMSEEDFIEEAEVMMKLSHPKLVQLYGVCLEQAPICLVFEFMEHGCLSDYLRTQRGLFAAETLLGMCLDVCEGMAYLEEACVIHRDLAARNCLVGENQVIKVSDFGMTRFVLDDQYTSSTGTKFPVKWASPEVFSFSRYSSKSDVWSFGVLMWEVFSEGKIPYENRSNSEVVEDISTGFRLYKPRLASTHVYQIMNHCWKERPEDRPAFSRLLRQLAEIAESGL
In short, it runs like this: as §1

A further assay has as its target T3, TEC (Homo sapiens, UniProt P42680).
T3 construct: purchased Carna 08-182
T3 sequence (P42680 1-631): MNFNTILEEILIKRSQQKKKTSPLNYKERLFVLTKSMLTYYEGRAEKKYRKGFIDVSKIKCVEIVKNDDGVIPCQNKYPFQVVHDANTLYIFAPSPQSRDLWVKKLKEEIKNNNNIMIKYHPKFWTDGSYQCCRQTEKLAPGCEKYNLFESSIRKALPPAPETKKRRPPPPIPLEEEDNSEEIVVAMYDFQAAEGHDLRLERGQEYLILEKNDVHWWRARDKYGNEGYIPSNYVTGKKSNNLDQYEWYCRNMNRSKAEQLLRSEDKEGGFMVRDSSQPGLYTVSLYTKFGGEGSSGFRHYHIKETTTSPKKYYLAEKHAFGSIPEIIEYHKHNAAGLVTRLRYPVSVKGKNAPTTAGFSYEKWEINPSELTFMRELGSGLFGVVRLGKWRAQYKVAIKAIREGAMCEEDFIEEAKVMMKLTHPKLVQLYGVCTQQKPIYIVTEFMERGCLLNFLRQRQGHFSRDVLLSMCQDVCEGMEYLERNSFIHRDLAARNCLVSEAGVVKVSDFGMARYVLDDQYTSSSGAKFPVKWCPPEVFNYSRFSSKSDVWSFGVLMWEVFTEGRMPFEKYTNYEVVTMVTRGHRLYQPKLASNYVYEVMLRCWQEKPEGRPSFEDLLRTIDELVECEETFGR
In outline: as §1

T1 sequence (P00533 669-1210 limits assumed): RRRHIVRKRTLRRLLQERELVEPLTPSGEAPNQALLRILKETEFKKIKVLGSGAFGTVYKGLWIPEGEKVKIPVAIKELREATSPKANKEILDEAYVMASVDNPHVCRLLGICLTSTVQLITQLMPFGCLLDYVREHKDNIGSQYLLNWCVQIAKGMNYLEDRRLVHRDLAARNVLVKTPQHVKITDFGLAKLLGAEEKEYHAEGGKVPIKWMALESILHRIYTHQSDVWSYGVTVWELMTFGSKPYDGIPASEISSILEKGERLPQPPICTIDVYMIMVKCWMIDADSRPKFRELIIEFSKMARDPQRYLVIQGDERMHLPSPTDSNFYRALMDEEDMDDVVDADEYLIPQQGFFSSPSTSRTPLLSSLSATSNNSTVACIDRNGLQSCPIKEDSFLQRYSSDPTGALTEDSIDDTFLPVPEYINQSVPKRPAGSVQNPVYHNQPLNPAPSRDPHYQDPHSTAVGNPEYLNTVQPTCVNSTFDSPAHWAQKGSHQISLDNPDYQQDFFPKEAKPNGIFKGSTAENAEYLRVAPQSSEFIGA

In general, IC50 refers to the point on the concentration scale where inhibition reaches its midpoint. For the compound `COc1ccc(F)cc1C(=O)NCc1ccc(-c2ncc(-c3cc4n(n3)CCN(C)C4)c3[nH]nc(N)c23)cc1` [Example 71, N-(4-(3-amino-7-(5-methyl-4,5,6,7-tetrahydropyrazolo[1,5-a]pyrazin-2-yl)-1H-pyrazolo[4,3-c]pyridin-4-yl)benzyl)-5-fluoro-2-methoxybenzamide], the IC50 at EGFR lay within 5 to 50 nM; on ITK, 50 to 500 nM; at TEC it was 5 to 50 nM.
Take `CCN1CCn2nc(-c3cnc(-c4ccc(CNC(=O)c5cc(F)ccc5OC)cc4)c4c(N)n[nH]c34)cc2C1` [Example 72, N-(4-(3-amino-7-(5-ethyl-4,5,6,7-tetrahydropyrazolo[1,5-a]pyrazin-2-yl)-1H-pyrazolo[4,3-c]pyridin-4-yl)benzyl)-5-fluoro-2-methoxybenzamide]: the figures for the IC50 at EGFR, at ITK and on TEC were 5 to 50 nM, 50 to 500 nM and 5 to 50 nM, respectively.
In the case of `COc1ccc(F)cc1C(=O)NCc1ccc(-c2ncc(-c3ccc(N4CCN(C)CC4)cn3)c3[nH]nc(N)c23)cc1` [Example 73, N-(4-(3-amino-7-(5-(4-methylpiperazin-1-yl)pyridin-2-yl)-1H-pyrazolo[4,3-c]pyridin-4-yl)benzyl)-5-fluoro-2-methoxybenzamide], the results for the half-maximal inhibitory concentration (IC50) at EGFR, on ITK and on TEC were 5 to 50 nM, 50 to 500 nM and 5 to 50 nM, respectively.
For `COc1ccc(F)cc1C(=O)NCc1ccc(-c2ncc(-c3ccc(N4CCN(C)C[C@@H]4C)cn3)c3[nH]nc(N)c23)cc1` [Example 74, (S)-N-(-4-(3-amino-7-(5-(2,4-dimethylpiperazin-1-yl)pyridin-2-yl) 1H-pyrazolo[4,3-c]pyridin-4-yl)benzyl)-5-fluoro-2-methoxybenzamide], the values for the IC50 on EGFR, at ITK and at TEC were 5 to 50 nM, 50 to 500 nM and above 500 nM, respectively.
`COc1ccc(F)cc1C(=O)NCc1ccc(-c2ncc(-c3ccc(N4CCN(C)C[C@H]4C)cn3)c3[nH]nc(N)c23)cc1` [Example 75, (R)-N-(-4-(3-amino-7-(5-(2,4-dimethylpiperazin-1-yl)pyridin-2-yl) 1H-pyrazolo[4,3-c]pyridin-4-yl)benzyl)-5-fluoro-2-methoxybenzamide]: the IC50 on EGFR, at ITK and on TEC was 5 to 50 nM in each case.
For the compound `COc1ccc(F)cc1C(=O)NCc1ccc(-c2ncc(-c3ccc(N4CCOCC4)cn3)c3[nH]nc(N)c23)cc1` [Example 76, N-(4-(3-amino-7-(5-morpholinopyridin-2-yl)-1H-pyrazolo[4,3-c]pyridin-4-yl)benzyl)-5-fluoro-2-methoxybenzamide], the IC50 at EGFR was in the range of 5 to 50 nM; on ITK, 50 to 500 nM; at TEC, 1 to 5 nM.
`COc1ccc(F)cc1C(=O)NCc1ccc(-c2ncc(-c3nccn4cccc34)c3[nH]nc(N)c23)cc1` [Example 77, N-(4-(3-amino-7-(pyrrolo[1,2-a]pyrazin-1-yl)-1H-pyrazolo[4,3-c]pyridin-4-yl)benzyl)-5-fluoro-2-methoxybenzamide]: the IC50 at EGFR is 50 to 500 nM; on ITK, above 500 nM; at TEC, 5 to 50 nM.
For `COc1ccc(F)cc1C(=O)NCc1ccc(-c2ncc(-c3cc4cnccn4n3)c3[nH]nc(N)c23)cc1` [Example 78, N-(4-(3-amino-7-(pyrazolo[1,5-a]pyrazin-2-yl)-1H-pyrazolo[4,3-c]pyridin-4-yl)benzyl)-5-fluoro-2-methoxybenzamide], the IC50 on EGFR lay within 5 to 50 nM; on ITK it was 50 to 500 nM; on TEC, 5 to 50 nM.
Take `COc1ccc(F)cc1C(=O)NCc1ccc(-c2ncc(-c3ccc(NC(=O)C4CC4)cn3)c3[nH]nc(N)c23)cc1` [Example 79, N-(4-(3-amino-7-(5-(cyclopropaneformamido)pyridin-2-yl)-1H-pyrazolo[4,3-c]pyridin-4-yl)benzyl)-5-fluoro-2-methoxybenzamide]: the 50% inhibitory concentration (IC50) at EGFR, at ITK and at TEC was above 500 nM in each case.
In the case of `COc1ccc(F)cc1C(=O)NCc1ccc(-c2ncc(-c3cc(NC(=O)C4CC4)ccn3)c3[nH]nc(N)c23)cc1` [Example 80, N-(4-(3-amino-7-(4-(cyclopropaneformamido)pyridin-2-yl)-1H-pyrazolo[4,3-c]pyridin-4-yl)benzyl)-5-fluoro-2-methoxybenzamide], the IC50 on EGFR is 50 to 500 nM; at ITK, above 500 nM; at TEC, 5 to 50 nM.
In the case of `COc1ccc(F)cc1C(=O)NCc1ccc(-c2ncc(-c3ccc(F)cn3)c3[nH]nc(N)c23)c(F)c1` [Example 82, N-(4-(3-amino-7-(5-fluoropyridin-2-yl)-1H-pyrazolo[4,3-c]pyridin-4-yl)-3-fluorobenzyl)-5-fluoro-2-methoxybenzamide], the IC50 was above 500 nM on EGFR, above 500 nM at ITK and 50 to 500 nM on TEC.
Turning to `COc1ccc(F)cc1C(=O)NCc1ccc(-c2nc(C)c(-c3ncccn3)c3[nH]nc(N)c23)cc1` [Example 84, N-(4-(3-amino-6-methyl-7-(pyrimidin-2-yl)-1H-pyrazolo[4,3-c]pyridin-4-yl)benzyl)-5-fluoro-2-methoxybenzamide], the IC50 at EGFR, at ITK and on TEC was above 500 nM each time.
`COc1ccc(F)cc1C(=O)NCc1ccc(-c2nc(C(F)F)c(-c3ncccn3)c3[nH]nc(N)c23)cc1` [Example 85, N-(4-(3-amino-6-(difluoromethyl)-7-(pyrimidin-2-yl)-1H-pyrazolo[4,3-c]pyridin-4-yl)benzyl)-5-fluoro-2-methoxybenzamide]: the IC50 was above 500 nM on EGFR, above 500 nM at ITK and 50 to 500 nM on TEC.
In the case of `COc1ccc(F)cc1C(=O)NCc1ccc(-c2nc(C3CCSCC3)cc3[nH]nc(N)c23)cc1` [Example 91, N-(4-(3-amino-6-(tetrahydro-2H-thiopyran-4-yl)-1H-pyrazolo[4,3-c]pyridin-4-yl)benzyl)-5-fluoro-2-methoxybenzamide], the values for the IC50 at EGFR, at ITK and at TEC were 50 to 500 nM, above 500 nM and 50 to 500 nM, respectively.
Consider `C=CC(=O)N1CCCC(c2cc3[nH]nc(N)c3c(-c3ccc(CNC(=O)c4cc(F)ccc4OC)cc3)n2)C1` (stereo not drawn) [Example 96, N-(4-(6-(1-acryloylpiperidin-3-yl)-3-amino-1H-pyrazolo[4,3-c]pyridin-4-yl)benzyl)-5-fluoro-2-methoxybenzamide], for which the IC50 at EGFR was 50 to 500 nM; on ITK it was above 500 nM; at TEC, 5 to 50 nM.
The like results for `COc1ccc(F)cc1C(=O)NCc1ccc(-c2ncc(-c3nccn4nccc34)c3[nH]nc(N)c23)cc1` [Example 98, N-(4-(3-amino-7-(pyrazolo[1,5-a]pyrazin-4-yl)-1H-pyrazolo[4,3-c]pyridin-4-yl)benzyl)-5-fluoro-2-methoxybenzamide] were, in that order, 50 to 500 nM, above 500 nM and 5 to 50 nM.
On to `COc1ccc(F)cc1C(=O)NCc1ccc(-c2ncc(-c3nc4ccccc4s3)c3[nH]nc(N)c23)cc1` [Example 99, N-(4-(3-amino-7-(benzo[d]thiazol-2-yl)-1H-pyrazolo[4,3-c]pyridin-4-yl)benzyl)-5-fluoro-2-methoxybenzamide], for which the half-inhibitory concentration (IC50) at EGFR was 50 to 500 nM; on ITK, above 500 nM; at TEC it was 5 to 50 nM.
In the case of `COc1ccc(F)cc1C(=O)NCc1ccc(-c2ncc(-c3nc4cccnc4s3)c3[nH]nc(N)c23)cc1` [Example 100, N-(4-(3-amino-7-(thiazolo[5,4-b]pyridin-2-yl)-1H-pyrazolo[4,3-c]pyridin-4-yl)benzyl)-5-fluoro-2-methoxybenzamide], the IC50 at EGFR was 50 to 500 nM; on ITK, above 500 nM; at TEC it was 5 to 50 nM.
Consider `CCN1CCc2nc(-c3cnc(-c4ccc(CNC(=O)c5cc(F)ccc5OC)cc4)c4c(N)n[nH]c34)sc2C1` [Example 101, N-(4-(3-amino-7-(5-ethyl-4,5,6,7-tetrahydrothiazolo[5,4-c]pyridin-2-yl)-1H-pyrazolo[4,3-c]pyridin-4-yl)benzyl)-5-fluoro-2-methoxybenzamide], for which the results for the IC50 on EGFR, at ITK and on TEC were 50 to 500 nM, 50 to 500 nM and 5 to 50 nM, respectively.

Source of the values: EP4741392A1, “1H-PYRAZOLO[4,3-C]PYRIDINE COMPOUND, AND COMPOSITION THEREOF AND USE THEREOF” (Shenzhen TargetRx Co., Ltd., priority 2023, dated 2025).
